Source: US20230086703A1, “N-(4-(5-chloropyridin-3-yl)phenyl)-2-(2-(cyclopropanesulfonamido)pyrimidin-4-yl) butanamide derivatives and related compounds as human CTPS1 inhibitors for the treatment of proliferative diseases” (Step Pharma S.A.S., priority 2019, published 2023)

Biological target: T1, human CTPS1 (Homo sapiens, UniProt P17812)
T1 construct: FLAG (with GG linker); His8 (with GG linker); purchased Proteros biostructures GmbH
T1 sequence (P17812 1-591): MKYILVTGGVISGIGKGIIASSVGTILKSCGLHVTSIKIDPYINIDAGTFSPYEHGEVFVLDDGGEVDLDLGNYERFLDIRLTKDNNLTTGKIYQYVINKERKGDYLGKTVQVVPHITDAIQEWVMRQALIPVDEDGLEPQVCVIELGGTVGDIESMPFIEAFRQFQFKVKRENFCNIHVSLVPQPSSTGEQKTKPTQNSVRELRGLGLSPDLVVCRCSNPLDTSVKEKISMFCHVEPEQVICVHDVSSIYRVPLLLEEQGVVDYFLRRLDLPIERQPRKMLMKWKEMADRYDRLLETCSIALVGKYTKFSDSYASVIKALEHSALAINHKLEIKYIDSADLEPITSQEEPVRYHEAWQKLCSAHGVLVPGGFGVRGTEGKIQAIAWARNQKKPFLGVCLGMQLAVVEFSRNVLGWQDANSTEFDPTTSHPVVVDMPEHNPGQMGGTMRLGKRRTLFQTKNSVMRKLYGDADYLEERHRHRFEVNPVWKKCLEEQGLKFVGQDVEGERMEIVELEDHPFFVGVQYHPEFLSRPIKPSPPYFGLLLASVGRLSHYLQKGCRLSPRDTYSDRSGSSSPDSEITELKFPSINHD
Assay: RapidFire/MS-based enzyme selectivity assay (human CTPS1 versus CTPS2), CTPS1 isoform
Format: biochemical
Details: RapidFire/MS IC50 values of CTPS1 and CTPS2; Table 15
Description: Human CTPS1 Versus CTPS2 Selectivity Assessment by RapidFire/MS Analysis.
The enzyme inhibitory activities against each target isoform of interest may be determined for the compounds of the invention using an optimised RapidFire high-throughput mass spectrometry (RF/MS) assay format. RF/MS assays for both human CTPS1 and CTPS2 may be performed in assay buffer consisting of 50 mM HEPES (Merck), 20 mM MgCl2, 5 mM KCl, 1 mM DTT, 0.01% Tween-20, pH to 8.0 accordingly. Human full-length active C-terminal FLAG-His-tag CTPS1 (UniProtKB—P17812, CTPS1[1-591]-[…] (CTPS1[1-591]-SEQ ID NO: 1)) may be obtained from Proteros biostructures GmbH. Human full length active C-terminal FLAG-His-Avi tagged CTPS2 (UniProtKB—Q9NRF8, CTPS2 [1-586]-[…] (CTPS2 [1-586]—SEQ ID NO: 2)) may be obtained from Harker Bio.
Human CTPS (1 or 2) protein may be prepared in 1× assay buffer to the final working protein concentration required for the reaction. A 2 uL volume per well of 2×CTPS (1 or 2) protein may be mixed with 40 nL of compound using acoustic (ECHO) delivery and incubated for 10 minutes at 25° C. Each isoform enzymatic reaction may be subsequently initiated by addition of 2 uL per well of a 2× substrate mix in assay buffer. For hCTPS1: ATP (0.3 mM), UTP (0.2 mM), GTP (0.07 mM) and L-glutamine (0.1 mM). For hCTPS2: ATP (0.1 mM), UTP (0.04 mM), GTP (0.03 mM) and L-glutamine (0.1 mM). Each mixture may be incubated for an appropriate amount of time per isoform within the determined linear phase of the reaction at 25° C. A 80 uL volume of stop solution (1% formic acid with 0.5 uM ^13C9-^15N3-CTP in H2O) may be added and the plate immediately heat-sealed and centrifuged for 10 minutes at 4,000 rpm. Following centrifugation, plates may be loaded onto the Agilent RapidFire microfluidic solid phase extraction system coupled to an API4000 triple quadrupole mass spectrometer (RF/MS) for analysis.
In all cases, the enzyme converts UTP to CTP. Highly specific and sensitive multiple reaction monitoring (MRM) MS methods may be optimised for the detection of the enzymatic reaction product, CTP, and the stable isotope labelled product standard ^13C9-^15N3-CTP. Readout for data analysis may be calculated as the ratio between the peak area of the product CTP and the internal standard ^13C9-^15N3-CTP. For data reporting, the following equation may be used:
(R=ratio/readout, P=product signal area, IS=internal standard signal area)
For each screening plate, the means of the negative (DMSO) and positive control values were used for the calculation of the respective assay window (S/B) and Z′ values. The median of the respective control values was used for calculation of percent inhibition according to the following equation:
(I=Inhibition, Rneq=median of negative control readout values, Rpos=median of positive control readout values, Rsample=sample readout value)
Percentage inhibition was then plotted against compound concentration, and the 50% inhibitory concentration (IC50) was determined from the resultant concentration-response curve.
Fold selectivity between CTPS1 and CTPS2 was subsequently calculated according to the following equation: […]

Row | Selectivity (fold selectivity between CTPS1 and CTPS2) | Compound
1 | + (2-30 fold (+)) | CC(C)(C(=O)Nc1ccc(-c2cccnc2)cc1)c1ccnc(NS(=O)(=O)C2CC2)n1 [P59, 2-(2-(cyclopropanesulfonamido)pyrimidin-4-yl)-2-methyl-N-(4-(pyridin-3-yl)phenyl)propanamide]
2 | ++ (>30-60 fold (++)) | CCOc1cncc(-c2ccc(NC(=O)C(C)(C)c3ccnc(NS(=O)(=O)C4CC4)n3)cc2)n1 [P65, 2-(2-(cyclopropanesulfonamido)pyrimidin-4-yl)-N-(4-(6-ethoxypyrazin-2-yl)phenyl)-2-methylpropanamide]
3 | ++ (>30-60 fold (++)) | CCOc1cncc(-c2ccc(NC(=O)C(C)(C)c3nc(NS(=O)(=O)C4CC4)ncc3F)cc2)n1 [P68, 2-(2-(cyclopropanesulfonamido)-5-fluropyrimidin-4-yl)-N-(4-(9-ethoxypyrazin-2-yl)phenyl)-2-methylpropanamide]
4 | + (2-30 fold (+)) | CCOc1cncc(-c2ccc(NC(=O)C(C)(C)c3nc(NS(=O)(=O)C4CC4)ncc3C)cc2)n1 [P70, 2-(2-(cyclopropanesulfonamido)-5-methylpyrimidin-4-yl)-N-(4-(6-ethoxypyrazin-2-yl)phenyl)-2-methylpropanamide]
5 | ++ (>30-60 fold (++)) | CCOc1cncc(-c2ccc(NC(=O)C(C)(C)c3ccnc(NS(=O)(=O)CC)n3)cc2)n1 [P74, N-(4-(6-ethoxypyrazin-2-yl)phenyl)-2-(2-(ethylsulfonamido)pyrimidin-4-yl)-2-methylpropanamide]
6 | ++ (>30-60 fold (++)) | CCOc1cncc(-c2ccc(NC(=O)C(C)(C)c3ccnc(NS(C)(=O)=O)n3)nc2)n1 [P76, N-(5-(6-ethoxypyrazin-2-yl)pyridin-2-yl)-2-methyl-2-(2-(methylsulfonamido)pyrimidin-4-yl)propanamide]
7 | +++ (>60 fold (+++)) | CCOc1cncc(-c2ccc(NC(=O)C3(c4ccnc(NS(=O)(=O)C5CC5)n4)CC3)cc2)n1 [P83, 1-(2-(cyclopropanesulfonamido)pyrimidin-4-yl)-N-(4-(6-ethoxypyrazin-2-yl)phenyl)cyclopropanecarboxamide]
8 | ++ (>30-60 fold (++)) | CCC(C(=O)Nc1ccc(-c2cncc(C(F)(F)F)n2)cn1)c1ccnc(NS(=O)(=O)C2CC2)n1 (stereo not shown) [P87, 2-(2-(cyclopropanesulfonamido)pyrimidin-4-yl)-N-(5-(6-(trifluoromethyl)pyrazin-2-yl)pyridin-2-yl)butanamide]
9 | +++ (>60 fold (+++)) | CCOc1cncc(-c2ccc(NC(=O)C(CC)c3ccnc(NS(=O)(=O)C4CC4)n3)nc2)n1 (stereo not shown) [P88, 2-(2-(cyclopropanesulfonamido)pyrimidin-4-yl)-N-(5-(6-ethoxypyrazin-2-yl)pyridin-2-yl)butanamide]
10 | +++ (>60 fold (+++)) | CCC(C(=O)Nc1ccc(-c2cncc(OC(C)C)n2)cn1)c1ccnc(NS(=O)(=O)C2CC2)n1 (stereo not shown) [P89, 2-(2-(cyclopropanesulfonamido)pyrimidin-4-yl)-N-(5-(6-isopropoxypyrazin-2-yl)pyridin-2-yl)butanamide]
11 | + (2-30 fold (+)) | CCC(C(=O)Nc1ccc(-c2cncc(OC)n2)cc1F)c1ccnc(NS(=O)(=O)C2CC2)n1 (stereo not shown) [P95, 2-(2-(cyclopropanesulfonamido)pyrimidin-4-yl)-N-(2-fluoro-4-(6-methoxypyrazin-2-yl)phenyl)butanamide]
12 | + (2-30 fold (+)) | CCOc1cncc(-c2ccc(NC(=O)C(CC)c3ccnc(NS(=O)(=O)C4CC4)n3)c(F)c2)n1 (stereo not shown) [P96, 2-(2-(cyclopropanesulfonamido)pyrimidin-4-yl)-N-(4-(6-ethoxypyrazin-2-yl)-2-fluorophenyl)butanamide]
13 | +++ (>60 fold (+++)) | CCC(C(=O)Nc1ccc(-c2cncc(OCC(F)(F)F)n2)cc1F)c1ccnc(NS(=O)(=O)C2CC2)n1 (stereo not shown) [P98, 2-(2-(cyclopropanesulfonamido)pyrimidin-4-yl)-N-(2-fluoro-4-(6-(2,2,2-trifluoroethoxy)pyrazin-2-yl)phenyl)butanamide]
14 | + (2-30 fold (+)) | CCC(C(=O)Nc1ccc(-c2cncc(C(F)(F)F)n2)cc1)c1ccnc(NS(=O)(=O)C2CC2)n1 (stereo not shown) [P103, 2-(2-(cyclopropanesulfonamido)pyrimidin-4-yl)-N-(4-(6-(trifluoromethyl)pyrazin-2-yl)phenyl)butanamide]
15 | ++ (>30-60 fold (++)) | CCOc1cncc(-c2ccc(NC(=O)C(CC)c3ccnc(NS(=O)(=O)C4CC4)n3)cc2)n1 (stereo not shown) [P105, 2-(2-(cyclopropanesulfonamido)pyrimidin-4-yl)-N-(4-(6-ethoxypyrazin-2-yl)phenyl)butanamide]
16 | +++ (>60 fold (+++)) | CCC(C(=O)Nc1ccc(-c2cncc(OCC(F)(F)F)n2)cc1)c1ccnc(NS(=O)(=O)C2CC2)n1 (stereo not shown) [P108, 2-(2-(cyclopropanesulfonamido)pyrimidin-4-yl)-N-(4-(9-(2,2,2-trifluoroethoxy)pyrazin-2-yl)phenyl)butanamide]
17 | ++ (>30-60 fold (++)) | CCOc1cncc(-c2ccc(NC(=O)C(CCOC)c3ccnc(NS(=O)(=O)C4CC4)n3)cc2)n1 (stereo not shown) [P110, 2-(2-(cyclopropanesulfonamido)pyrimidin-4-yl)-N-(4-(9-ethoxypyrazin-2-yl)phenyl)-4-methoxypbutanamide]
18 | +++ (>60 fold (+++)) | CCOc1cncc(-c2ccc(NC(=O)C3(c4ccnc(NS(=O)(=O)C5CC5)n4)CCOCC3)nc2)n1 [P115, 4-(2-(Cyclopropanesulfonamido)pyrimidin-4-yl)-N-(5-(6-ethoxypyrazin-2-yl)pyridin-2-yl)tetrahydro-2H-pyran-4-carboxamide]
19 | +++ (>60 fold (+++)) | CCOc1cncc(-c2ccc(C(=O)NCc3ccnc(NS(=O)(=O)C4CC4)n3)cc2)n1 [P118, N-((2-(cyclopropanesulfonamido)pyrimidin-4-yl)methyl)-4-(6-ethoxypyrazin-2-yl)benzamide]
20 | ++ (>30-60 fold (++)) | CC(C)(C(=O)Nc1ccc(-c2cncc(C3CC3)n2)cn1)c1ccnc(NS(=O)(=O)C2CC2)n1 [P125, 2-(2-(cyclopropanesulfonamido)pyrimidin-4-yl)-N-(5-(6-cyclopropylpyrazin-2-yl)pyridin-2-yl)-2-methylpropanamide]
21 | + (2-30 fold (+)) | CC(C)(C(=O)Nc1ccc(-c2cncc(C3CC3)n2)cc1F)c1ccnc(NS(=O)(=O)C2CC2)n1 [P128, 2-(2-(cyclopropanesulfonamido)pyrimidin-4-yl)-N-(4-(9-cyclopropylpyrazin-2-yl)-2-fluorophenyl)-2-methylpropanamide]
22 | ++ (>30-60 fold (++)) | CC(C)c1cncc(-c2ccc(NC(=O)C(C)(C)c3ccnc(NS(=O)(=O)C4CC4)n3)cc2)n1 [P132, 2-(2-(cyclopropanesulfonamido)pyrimidin-4-yl)-N-(4-(6-isopropylpyrazin-2-yl)phenyl)-2-methylpropanamide]
